# According to patent US20260184707A1, “PHARMACEUTICAL COMPOUNDS FOR THE TREATMENT OF COMPLEMENT MEDIATED DISORDERS” (ALEXION PHARMACEUTICALS, INC., priority 2022, published 2026):
# Biological target: T1, Human complement C1s enzyme (Homo sapiens, UniProt P09871)
# T1 construct: purified from human serum, Complement Technology, Inc; purchased Complement Technology, Inc; host or cells: human serum (plasma-derived native protein)
# T1 sequence (P09871 438-688 limits assumed): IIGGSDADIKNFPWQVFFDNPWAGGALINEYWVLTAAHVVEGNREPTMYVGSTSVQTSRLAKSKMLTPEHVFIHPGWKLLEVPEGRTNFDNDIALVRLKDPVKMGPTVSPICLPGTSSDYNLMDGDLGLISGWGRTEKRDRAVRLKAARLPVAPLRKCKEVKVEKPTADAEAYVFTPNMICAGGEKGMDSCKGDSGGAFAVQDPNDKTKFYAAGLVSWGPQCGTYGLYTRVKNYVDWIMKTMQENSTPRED
# T1 sequence (P09871 16-437 partner limits assumed): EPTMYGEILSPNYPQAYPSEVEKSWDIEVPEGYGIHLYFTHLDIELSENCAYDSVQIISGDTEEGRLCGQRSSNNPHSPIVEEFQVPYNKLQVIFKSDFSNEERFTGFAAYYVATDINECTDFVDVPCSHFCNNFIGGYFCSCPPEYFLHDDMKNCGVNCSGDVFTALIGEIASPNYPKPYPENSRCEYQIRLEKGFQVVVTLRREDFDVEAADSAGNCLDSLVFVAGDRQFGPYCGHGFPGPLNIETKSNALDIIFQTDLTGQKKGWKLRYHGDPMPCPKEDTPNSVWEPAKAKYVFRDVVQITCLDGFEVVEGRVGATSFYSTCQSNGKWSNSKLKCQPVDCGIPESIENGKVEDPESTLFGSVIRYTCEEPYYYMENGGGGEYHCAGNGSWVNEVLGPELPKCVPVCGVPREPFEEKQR
# Assay: Human C1s enzyme assay
# Format: biochemical
# Conditions: human complement C1s enzyme 1.16 nM, substrate Z-L-Lys-SBzl, A405; read-out: IC50 (Stars)
# Description: The […] values of the compounds of Table 1 were determined with the human C1s enzyme assay described below. Other standard complement assays are also available.
# Human complement C1s enzyme (purified from human serum, Complement Technology, Inc.) at 1.16 nM final concentration was incubated with test compound at various concentrations for 5 min at room temperature in 50 mM Tris, 1 M NaCl, pH 7.5. A synthetic substrate Z-L-Lys-SBzl and DTNB (Ellman's reagent) were added to final concentrations of 100 μM each. Absorbance at 405 nm (A405) was recorded at 30 second intervals for […] using a microplate spectrophotometer. IC values were calculated by nonlinear regression of complement C1s reaction rates as a function of test compound concentration.
# […]; ND indicates a compound for which the IC50 value is not determined.
row,IC50,SMILES
1,< 100 nM,"O=C(Cn1c(-c2ccccc2)ncc(NCc2ccc(Oc3ccccc3)cc2)c1=O)NCc1cc2cnccc2[nH]1 [Compound 20, N-((1H-pyrrolo[3,2-c]pyridin-2-yl)methyl)-2-(6-oxo-5-((4-phenoxybenzyl)amino)-2-phenylpyrimidin-1(6H)-yl)-acetamide]"
2,100 to 1000 nM,"O=C(Cn1c(-c2ccccc2)ncc(NC(=O)NCc2ccccc2)c1=O)NCc1cc2cnccc2[nH]1 [Compound 79, N-((1H-pyrrolo[3,2-c]pyridin-2-yl)methyl)-2-(5-(3-benzyl-ureido)-6-oxo-2-phenylpyr-imidin-1(6H)-yl)acetamide]"
3,100 to 1000 nM,"O=C(Cn1c(-c2ccccc2)ncc(NC(=O)C23CC(c4ccccc4)(C2)C3)c1=O)NCc1cc2cnccc2[nH]1 [Compound 243, N-(1-(2-(((1H-pyrrolo[3,2-c]pyridin-2-yl)methyl)amino)-2-oxoethyl)-6-oxo-2-phenyl-1,6-dihydropyrimidin-5-yl)-3-phenylbicyclo[1.1.1]pentane-1-carboxamide]"
4,< 100 nM,O=C(Cn1c(-c2ccccc2)ncc(Nc2ccc3c(c2)oc2ccccc23)c1=O)NCc1cc2cnccc2[nH]1 [Compound 245]
5,< 100 nM,"C[C@@H](Nc1cnc(-c2ccccc2)n(CC(=O)NCc2cc3cnccc3[nH]2)c1=O)c1coc(-c2ccccc2)n1 [Compound 347, (R)-N-((1H-pyrrolo[3,2-c]pyridin-2-yl)methyl)-2-(6-oxo-2-phenyl-5-((1-(2-phenyloxa-zol-4-yl)ethyl)amino)pyrimi-din-1(6H)-yl)acetamide]"
6,100 to 1000 nM,"C[C@@H](Nc1ncc(N2CCCC2)n(CC(=O)NCc2cc3cnccc3[nH]2)c1=O)c1ccc2oc3ccccc3c2c1 [Compound 440, (R)-N-((1H-pyrrolo[3,2-c]pyridin-2-yl)methyl)-2-(3-((1-(dibenzo[b,d]furan-2-yl)ethyl)-amino)-2-oxo-6-(pyrrolidin-1-yl)pyrazin-1(2H)-yl)acetamide]"
7,100 to 1000 nM,"C[C@@H](Nc1cncn(CC(=O)NCc2cc3cnccc3[nH]2)c1=O)c1ccc2oc3ccccc3c2c1 [Compound 310, (R)-N-((1H-pyrrolo[3,2-c]pyridin-2-yl)methyl)-2-(5-((1-(dibenzo[b,d]furan-2-yl)ethyl)-amino)-6-oxopyrimidin-1(6H)-yl)acetamide]"
8,< 100 nM,"O=C(Cn1c(-c2ccccc2)ncc(NC(=O)c2ccc(Oc3cccnc3)cc2)c1=O)NCc1cc2cnccc2[nH]1 [Compound 53, N-(1-(2-(((1H-pyrrolo[3,2-c]pyridin-2-yl)methyl)amino)-2-oxoethyl)-6-oxo-2-phenyl-1,6-dihydropyrimidin-5-yl)-4-(pyridin-3-yloxy)benzamide]"
9,< 100 nM,"O=C(Cn1c(-c2ccccc2)ncc(NCCCc2ccc(OC(F)(F)F)cc2)c1=O)NCc1cc2cnccc2[nH]1 [Compound 39, N-((1H-pyrrolo[3,2-c]pyridin-2-yl)methyl)-2-(6-oxo-2-phen-yl-5-((3-(4-(trifluoromethoxy)-phenyl)propyl)amino)pyrimi-din-1(6H)-yl)acetamide]"
10,< 100 nM,"CO[C@@H]1CO[C@H]2[C@@H]1OC[C@H]2Oc1ccc(-c2ncc(N[C@H](C)c3ccc4oc5ccccc5c4c3)c(=O)n2CC(=O)NCc2cc3cnccc3[nH]2)cc1 [Compound 238, N-((1H-pyrrolo[3,2-c]pyridin-2-yl)methyl)-2-(5-(((R)-1-(dibenzo[b,d]furan-2-yl)ethyl)-amino)-2-(4-(((3R,3aR,6R, 6aR)-6-methoxyhexahydrofuro [3,2-b]furan-3-yl)oxy)phenyl)-6-oxopyrimidin-1(6H)-yl)acet-amide]"
11,< 100 nM,"C[C@@H](Nc1ncc(C2=CCCCC2)n(CC(=O)NCc2cc3cnccc3[nH]2)c1=O)c1ccc2oc3ccccc3c2c1 [Compound 427, (R)-N-((1H-pyrrolo[3,2-c]pyridin-2-yl)methyl)-2-(6-(cyclohex-1-en-1-yl)-3-((1-(dibenzo[b,d]furan-2-yl)ethyl)-amino)-2-oxopyrazin-1(2H)-yl)acetamide]"
12,< 100 nM,"O=C(Cn1c(-c2ccccc2)ncc(NCCCc2ccc3oc4ccccc4c3c2)c1=O)NCc1cc2cnccc2[nH]1 [Compound 40, N-((1H-pyrrolo[3,2-c]pyridin-2-yl)methyl)-2-(5-((3-(dibenzo [b,d]furan-2-yl)propyl)amino)-6-oxo-2-phenylpyrimidin-1(6H)-yl)acetamide]"
13,< 100 nM,"O=C(Cn1c(-c2ccccc2)ncc(NC(=O)c2ccc(Oc3nccs3)cc2)c1=O)NCc1cc2cnccc2[nH]1 [Compound 94, N-(1-(2-(((1H-pyrrolo[3,2-c]pyridin-2-yl)methyl)amino)-2-oxoethyl)-6-oxo-2-phenyl-1,6-dihydropyrimidin-5-yl)-4-(thiazol-2-yloxy)benzamide]"
14,< 100 nM,"O=C(Cn1c(-c2ccccc2)ncc(NC(=O)c2ccc(-c3ccccc3)s2)c1=O)Nc1nccs1 [Compound 220, N-(6-oxo-1-(2-oxo-2-(thiazol-2-ylamino)ethyl)-2-phenyl-1,6-dihydropyrimidin-5-yl)-5-phen-ylthiophene-2-carboxamide]"
15,< 100 nM,"C[C@@H](Nc1ncc(-c2ccccc2F)n(CC(=O)NCc2cc3cnccc3[nH]2)c1=O)c1ccc2oc3ccccc3c2c1 [Compound 322, (R)-N-((1H-pyrrolo[3,2-c]pyridin-2-yl)methyl)-2-(3-((1-(dibenzo[b,d]furan-2-yl)ethyl)-amino)-6-(2-fluorophenyl)-2-oxopyrazin-1(2H)-yl)acetamide]"
16,< 100 nM,"CP(=O)(O)c1ccc(-c2ncc(NCCCc3ccccc3)c(=O)n2CC(=O)NCc2cc3cnccc3[nH]2)cc1 [Compound 68, (4-(1-(2-(((1H-pyrrolo[3,2-c]pyridine-2-yl)methyl)amino)-2-oxoethyl)-6-oxo-5-((3-phenylpropyl)amino)-1,6-dihydropyrimidin-2-yl)phenyl)(methyl)phosphinic acid]"
17,100 to 1000 nM,"C[C@@H](Nc1cnc(N2CCCCCC2)n(CC(=O)NCc2cc3cnccc3[nH]2)c1=O)c1ccc2oc3ccccc3c2c1 [Compound 388, (R)-N-((1H-pyrrolo[3,2-c]pyridin-2-yl)methyl)-2-(2-(azepan-1-yl)-5-((1-(dibenzo [b,d]furan-2-yl)ethyl)amino)-6-oxopyrimidin-1(6H)-yl)-acetamide]"
18,< 100 nM,"CO[C@@H]1CO[C@H]2[C@@H]1OC[C@H]2Oc1ccc(-c2ncc(NC(=O)c3cnc(-c4ccccc4)s3)c(=O)n2CC(=O)NCc2cc3cnccc3[nH]2)cc1 [Compound 262, N-(1-(2-(((1H-pyrrolo[3,2-c]pyridine-2-yl)methyl)amino)-2-oxoethyl)-2-(4-(((3R,3aR,6R,6aR)-6-methoxyhexahydrofuro[3,2-b]furan-3-yl)oxy)phenyl)-6-oxo-1,6-dihydropyrimidin-5-yl)-2-phenylthiazole-5-carboxamide]"
19,100 to 1000 nM,"C[C@@H](Nc1cnc(-c2nccs2)n(CC(=O)NCc2cc3cnccc3[nH]2)c1=O)c1ccc2oc3ccccc3c2c1 [Compound 340, (R)-N-((1H-pyrrolo[3,2-c]pyridin-2-yl)methyl)-2-(5-((1-(dibenzo[b,d]furan-2-yl)ethyl)-amino)-6-oxo-2-(thiazol-2-yl)-pyrimidin-1(6H)-yl)acetamide]"
20,< 100 nM,"O=C(Cn1c(-c2ccccc2)ncc(NC(=O)c2ccc(Oc3ccccc3)o2)c1=O)NCc1cc2cnccc2[nH]1 [Compound 57, N-(1-(2-(((1H-pyrrolo[3,2-c]pyridin-2-yl)methyl)amino)-2-oxoethyl)-6-oxo-2-phenyl-1,6-dihydropyrimidin-5-yl)-5-phen-oxyfuran-2-carboxamide]"
